The record followed here is BindingDB's records for doi:10.1021/jm00053a023 (Monsanto, 1993).

This experiment has as its target endothelin converting enzyme (Oryctolagus cuniculus). Briefly: Inhibition of endothelin converting enzyme in an RIA assay using big ET-1 as substrate (value corresponds to <25% inhibition when assayed at a 100 uM screening concentration).

Broadly, the IC50 is the concentration at which inhibition is half-maximal. Read a high IC50 as weaker potency in that assay.

In turn, `CC(C)C[C@H](NP(=O)(O)OC1CCCCC1)C(=O)N[C@@H](Cc1c[nH]c2ccccc12)C(=O)O` [2-[2-(Cyclohexyloxy-hydroxy-phosphorylamino)-4-methyl-pentanoylamino]-3-(1H-indol-3-yl)-propionic acid] registered an IC50 of 48 µM.
Turning to `CCOP(=O)(O)N[C@@H](CC(C)C)C(=O)N[C@@H](Cc1c[nH]c2ccccc12)C(=O)O` [2-[2-(Ethoxy-hydroxy-phosphorylamino)-4-methyl-pentanoylamino]-3-(1H-indol-3-yl)-propionic acid], the half-inhibitory concentration (IC50) was determined as 109 µM.
The result for `CC(C)C[C@H](NP(=O)(O)Cc1ccccc1)C(=O)N[C@@H](Cc1c[nH]c2ccccc12)C(=O)O` [2-[2-(Hydroxy-benzyl-phosphorylamino)-4-methyl-pentanoylamino]-3-(1H-indol-3-yl)-propionic acid] reads 61 µM.
